Source: PMC9416111, “Synthesis and Biological Activity of Unsymmetrical Monoterpenylhetaryl Disulfides” (Molecules, 2022)
≈ marks a conversion by molar mass, not a printed value.

Legend:
P. aeruginosa ATCC 27853 = assay: Antibacterial MIC, broth microdilution (EUCAST); format: cell-based, Pseudomonas aeruginosa; details: for MIC: Pseudomonas aeruginosa, ATCC27853, 24 h, Mueller-Hinton broth
Experimental: (§1) Minimum inhibitory concentrations (MICs) of compounds was determined by the broth microdilution assay in 96-well plates (Eppendorf, Hamburg, Germany) according to the EUCAST rules for antimicrobial susceptibility testing in full Mueller-Hinton broth (MH). The concentrations of compounds to be tested ranged from 1 to 2048 µg/mL. The MIC was determined as the lowest concentration of an antibiotic for which no visible bacterial growth could be observed after 24 h of incubation.

[1] = tested on: S. aureus ATCC 29213 (MSSA); assay: Antibacterial MIC, broth microdilution (EUCAST); format: cell-based, Staphylococcus aureus; details: for MIC: Staphylococcus aureus
Experimental: as §1

[2] = tested on: S. aureus MRSA clinical isolate; assay: Antibacterial MIC, broth microdilution (EUCAST); format: cell-based, Staphylococcus aureus; details: for MIC: Staphylococcus aureus, MRSA, 24 h, Mueller-Hinton broth
Experimental: as §1

[3] = tested on: influenza virus A/Puerto Rico/8/34 (H1N1); assay: Antiviral cell protection assay in MDCK cells; format: cell-based; details: H1N1, MDCK, 72 h
[4] = Cytotoxicity, MTT on EBL cells; details: bovine, EBL cells (embryonic bovine lung)
Experimental: (§3) Cytotoxicity of compounds was determined using the microtetrazolium test (MTT) on EBL cells. The cells were cultured in DMEM—Dulbecco’s Modified Eagle’s Medium (Sigma Aldrich, St. Louis, MO, USA) supplemented with 10% FBS, 2 mM L-glutamine, 100 µg/mL penicillin and 100 µg/mL streptomycin. Cells were seeded in 96-well plates with the density of 3000 cells per well and left overnight to allow for the attachment. Cells were next cultured at 37 °C and 5% CO2 in the presence of compounds of interest at various concentrations from 1.25 to 160 µg/mL. After 24 h of cultivation the cells were subjected to MTT-assay. The formazan was solubilized by DMSO and the optical density was measured on Tecan Infinite 200Pro at 570 nm. The concentration required to inhibit cellular dehydrogenase activity by 50% (CC50 value) was calculated by using GraphPad Prism 6.0 software (GraphPad software, San Diego, CA, USA).

in vitro = details: dog
[5] = tested on: Candida albicans 703 clinical isolate; assay: Antifungal MIC, broth microdilution (CLSI M27-A3); details: for MIC: Candida albicans, 24 h, read-out: MIC C. albicans 703 Clinical Isolate
[6] = tested on: red blood cells from laboratory mice; assay: Membrane-protective activity: H2O2-induced hemolysis of erythrocytes; format: cell-based; details: 1 μM, 1–5 h
Experimental: The membrane-protective properties of the compounds were evaluated in the model of oxidative hemolysis of erythrocytes at a concentration of 1 μM in order to avoid the effect of hemolytic activity.
(§2) To evaluate the erythrotoxicity, antioxidant and membrane-protective activity of the compounds, we used 0.5% (v/v) suspension of red blood cells from laboratory mice in phosphate-buffered saline (PBS, pH 7.4). The test substances were previously dissolved in ethanol. Erythrotoxicity (hemolytic activity) was evaluated by the degree of hemolysis of red blood cells 1–5 h after the introduction of solutions of the compounds. Membrane-protective and antioxidant activity was determined by the degree of inhibition of H2O2-induced hemolysis. For this purpose, 30 min after the erythrocyte suspension was added to the solutions of the test compounds, hemolysis was initiated with a solution of hydrogen peroxide (0.006%). Then, the reaction mixture was incubated in a thermostatic shaker Biosan ES-20 with slow stirring at 37 °C for 5 h. An aliquot was taken from the incubation medium every hour, centrifuged for 5 min (1600× g), and the degree of hemolysis was determined by the hemoglobin content in the supernatant on a ThermoSpectromic Genesys 20 spectrophotometer (Thermo Fisher Scientific, Waltham, MA, USA) at 524 nm. The percentage of hemolysis was calculated in relation to the complete hemolysis of the sample. Each experiment was designed with 4–8 replicates. Statistical data processing and charting were performed using the Microsoft Office Excel 2007 software package (Microsoft, Redmond, WA, USA). The data represent the mean ± SE.
Figure 4 Effect of unsymmetrical disulfides and Trolox (T) at a concentration of 1 μM on the level of H2O2-induced hemolysis of erythrocytes after 1–5 h of incubation.

[7] = tested on: EBL cells (embryonic bovine lung); assay: Cytotoxicity, MTT on EBL cells
Experimental: as §3

[8] = tested on: red blood cells from laboratory mice; assay: Erythrotoxicity (hemolytic activity); format: cell-based; details: 100 μM, 1, 3 and 5 h of incubation
Experimental: No significant hemolytic activity was detected at a concentration of 1 μM (Figure 3B).
as §2
Figure 3 Hemolytic activity of unsymmetrical disulfides at the concentration of 100 μM (A) and 1 μM (B) after 1, 3 and 5 h of incubation.

Row | Compound | MIC (P. aeruginosa ATCC 27853) [µg/mL] | MIC ([1]; 24 h, Mueller-Hinton broth) [µg/mL] | MIC [2] [µg/mL] | IC50 [3] [µM] | melting point | CC50 at 24 h [4] [µg/mL] | CC50 (in vitro) [µM] | MIC [5] [µg/mL] | membrane-protective activity, in words [6] | activity against P. aeruginosa ATCC 27853, in words (P. aeruginosa ATCC 27853) | cytotoxicity on EBL cells, in words [7] | hemolytic activity (erythrotoxicity), in words [8] | antibacterial activity against MSSA, in words [1] | antibacterial activity against MRSA, in words [2] | MIC S. aureus ATCC 29213 (MSSA) ([1]; 24 h, Mueller-Hinton broth) [µg/mL] | antifungal activity against Candida albicans 703, in words [5]
1 | NCC[C@H](O)C(=O)N[C@@H]1C[C@H](N)[C@@H](O[C@H]2O[C@H](CN)[C@@H](O)[C@H](O)[C@H]2O)[C@H](O)[C@H]1O[C@H]1O[C@H](CO)[C@@H](O)[C@H](N)[C@H]1O [Amikacin, reference compound] | 4 (≈ 6.83 µM) | 4 (≈ 6.83 µM) | 4 (≈ 6.83 µM) | – | – | – | – | – | – | – | – | – | – | – | – | –
2 | COC(=O)c1cccnc1SS[C@H]1C[C@H](C)CC[C@H]1C(C)C [Compound 1c, Methyl 2-(((1S,2S,5R)-2-isopropyl-5-methylcyclohexyl)disulfanyl)pyridine-3-carboxylate] | 32 (≈ 94.2 µM) | 32 (≈ 94.2 µM) | 32 (≈ 94.2 µM) | 12 ± 2 | 96 °C | 18.3 (≈ 53.9 µM) | 31 ± 2 | 512 (≈ 1510 µM) | – | – | – | – | – | – | – | –
3 | CC(C)[C@@H]1CC[C@@H](C)C[C@@H]1SSc1ncccc1C(=O)O [Compound 1d, 2-(((1S,2S,5R)-2-isopropyl-5-methylcyclohexyl)disulfanyl)nicotinic acid] | 1020 (≈ 3150 µM) | 32 (≈ 98.3 µM) | 64 (≈ 197 µM) | > 34 | 160 to 161 °C (dec.) | 47.8 (≈ 147 µM) | 38 ± 3 | 64 (≈ 197 µM) | – | – | – | – | – | – | – | –
4 | CC1(C)[C@H]2CC[C@@H](CSSc3nc4ccccc4s3)[C@@H]1C2 [Compound 2a, 2-((((1S,2R,5S)-6,6-dimethylbicyclo [3.1.1]heptan-2-yl)methyl)disulfaneyl)benzo[d]thiazole] | 64 (≈ 191 µM) | 128 (≈ 381 µM) | 128 (≈ 381 µM) | 13 ± 3 | – | 104 (≈ 311 µM) | 99 ± 5 | 1020 (≈ 3050 µM) | most active | repressed the growth | least toxicity | Low hemolytic activity | – | – | – | –
5 | Cc1cc(C)nc(SSC[C@@H]2CC[C@H]3C[C@@H]2C3(C)C)n1 [Compound 2b, 2-((((1S,2R,5S)-6,6-dimethylbicyclo[3.1.1]heptan-2-yl)methyl)disulfanyl)-4,6-dimethylpyrimidine] | 32 (≈ 104 µM) | 16 (≈ 51.9 µM) | 64 (≈ 207 µM) | 13 ± 2 | – | 13.6 (≈ 44.1 µM) | 35 ± 3 | > 1020 | most active | repressed the growth | – | – | – | – | – | –
6 | COC(=O)c1cccnc1SSC[C@@H]1CC[C@H]2C[C@@H]1C2(C)C [Compound 2c, Methyl 2-((((1S,2R,5S)-6,6-dimethylbicyclo[3.1.1]heptan-2-yl)methyl)disulfaneyl)pyridine-3-carboxylate] | 1020 (≈ 3030 µM) | > 1020 | 64 (≈ 190 µM) | 19 ± 3 | – | 123 (≈ 363 µM) | 104 ± 8 | 1020 (≈ 3030 µM) | most active | – | least toxicity | – | inactive | showing activity | – | –
7 | CC1(C)[C@H]2CC[C@@H](CSSc3ncccc3C(=O)O)[C@@H]1C2 [Compound 2d, 2-((((1S,2R,5S)-6,6-dimethylbicyclo[3.1.1]heptan-2-yl)methyl)disulfanyl)nicotinic acid] | 1020 (≈ 3170 µM) | 16 (≈ 49.5 µM) | 512 (≈ 1580 µM) | 5 ± 1 | – | 18.1 (≈ 56 µM) | 60 ± 4 | 128 (≈ 396 µM) | – | – | – | – | – | – | 32 (≈ 98.9 µM) | –
8 | CC1(C)[C@H]2C[C@H](SSc3nc4ccccc4s3)[C@@H](CO)[C@@H]1C2 [Compound 3a, ((1S,2R,3S,5R)-3-(benzo[d]thiazol-2-yldisulfanyl)-6,6-dimethylbicyclo[3.1.1]heptan-2-yl)methanol] | 64 (≈ 182 µM) | 32 (≈ 91 µM) | 32 (≈ 91 µM) | 9 ± 3 | – | 7.1 (≈ 20.2 µM) | 30 ± 3 | 1020 (≈ 2910 µM) | – | repressed the growth | – | – | – | – | – | –
9 | Cc1cc(C)nc(SS[C@H]2C[C@H]3C[C@@H]([C@@H]2CO)C3(C)C)n1 [Compound 3b, ((1S,2R,3S,5R)-3-((4,6-dimethylpyrimidin-2-yl)disulfanyl)-6,6-dimethylbicyclo[3.1.1]heptan-2-yl)methanol] | 1020 (≈ 3160 µM) | 32 (≈ 98.6 µM) | 32 (≈ 98.6 µM) | 16 ± 3 | – | 8.2 (≈ 25.3 µM) | 83 ± 4 | 512 (≈ 1580 µM) | most active | – | – | – | – | – | – | –
10 | CC1(C)[C@H]2C[C@H](SSc3ncccc3C(=O)O)[C@@H](CO)[C@@H]1C2 [Compound 3d, 2-(((1S,2R,3S,5R)-2-(hydroxymethyl)-6,6-dimethylbicyclo[3.1.1]heptan-3-yl)disulfanyl)nicotinic acid] | 1020 (≈ 3020 µM) | 512 (≈ 1510 µM) | 1020 (≈ 3020 µM) | 132 ± 16 | 99 °C | 118 (≈ 347 µM) | 285 ± 14 | 32 (≈ 94.3 µM) | – | – | least toxicity | Low hemolytic activity | – | – | – | active against yeast
11 | CC1(C)[C@H]2C[C@H](O)[C@@H](CSSc3nc4ccccc4s3)[C@@H]1C2 [Compound 4a, (1S,2S,3S,5R)-2-((benzo[d]thiazol-2-yldisulfanyl)methyl)-6,6-dimethylbicyclo[3.1.1]heptan-3-ol] | 1020 (≈ 2910 µM) | 256 (≈ 728 µM) | > 1020 | > 31 | – | – | 68 ± 6 | > 1020 | most active | – | – | – | – | – | – | –
12 | Cc1cc(C)nc(SSC[C@@H]2[C@@H](O)C[C@H]3C[C@@H]2C3(C)C)n1 [Compound 4b, (1S,2S,3S,5R)-2-(((4,6-dimethylpyrimidin-2-yl)disulfanyl)methyl)-6,6-dimethylbicyclo[3.1.1]heptan-3-ol] | > 1020 | > 1020 | > 1020 | 12 ± 3 | – | – | 34 ± 2 | > 1020 | most active | – | – | – | – | – | – | –
13 | CC1(C)[C@H]2C[C@H](O)[C@@H](CSSc3ncccc3C(=O)O)[C@@H]1C2 [Compound 4d, 2-((((1S,2S,3S,5R)-3-hydroxy-6,6-dimethylbicyclo[3.1.1]heptan-2-yl)methyl)disulfanyl)nicotinic acid] | 1020 (≈ 3020 µM) | 512 (≈ 1510 µM) | 64 (≈ 189 µM) | > 97 | – | 11.1 (≈ 32.8 µM) | 178 ± 11 | 16 (≈ 47.1 µM) | most active | – | – | – | – | – | – | active against yeast
14 | OC(Cn1cncn1)(Cn1cncn1)c1ccc(F)cc1F [Fluconazole, reference compound] | – | – | – | – | – | – | – | 16 (≈ 52.2 µM) | – | – | – | – | – | – | – | –
15 | CC(N)C12CC3CC(CC(C3)C1)C2 (stereo not drawn) [Rimantadine, reference compound] | – | – | – | 57 ± 8 | – | – | 367 ± 28 | – | – | – | – | – | – | – | – | –
